Read-outs that look alike come from different tables or passages of the source.
Experiments:
[1] = biological target: α7 nAChR (Homo sapiens, UniProt P36544); assay: Two-electrode voltage clamp, nAChRs expressed in Xenopus oocytes; type: cell-based; details: 1 or 10 µM, relative to ACh control; co-applied at 1 µM with ACh
[2] = biological target: α3β4 nAChR (Homo sapiens, UniProt P30926+P32297); assay: as above; type: cell-based; details: 1 or 10 µM, relative to ACh control; co-applied at 1 µM with ACh
[3] = biological target: muscle nAChR α1β1εδ (Mus musculus, UniProt P02716+P04756+P20782); assay: as above; type: cell-based; details: 1 or 10 µM, relative to ACh control; co-applied at 1 µM with ACh
[4] = biological target: (α1)2β1γδ nAChR (Tetronarce californica, UniProt P02710+P02714+P02718); assay: Competition binding assay using; set-up: species or system Torpedo californica
[5] = biological target: α4β2* nAChR (Rattus norvegicus, UniProt P09483+P12390); assay: Competition binding assay using
[6] = biological target: (α1)2β1γδ; details: read-out: (α1)2β1γδ Ki, cited from earlier work
[7] = biological target: α4β2*; details: read-out: α4β2* Ki, cited from earlier work
[8] = biological target: α3β4*; details: read-out: α3β4* Ki, cited from earlier work
[9] = biological target: α7*; details: read-out: α7* Ki, cited from earlier work

CC(=O)N1C[C@@H]2CNC[C@@H](C2)C1.O=C(O)/C=C/C(=O)O [Compound 8, (1R, 5S)-1-(3,7-diazabicyclo[3.3.1]nonan-3-yl)ethanone]
functional profile at α7 [1]: agonism

O=C(CC1CCCC1)N1C[C@@H]2CNC[C@@H](C2)C1.O=C(O)/C=C/C(=O)O [Compound 55, 1-((1R,5S)-3,7-diazabicyclo[3.3.1]nonan-3-yl)-2-cyclopentylethanone]
functional profile at α3β4* [2]: essentially no effect | functional profile at α7 [1]: apparent antagonistic activity | functional profile at muscle type [3]: apparent antagonistic activity

O=C(N1CCC(Cc2ccccc2)CC1)N1C[C@@H]2CNC[C@@H](C2)C1 [Compound 69, (1R,5S)-3,7-diazabicyclo[3.3.1]nonan-3-yl(4-benzylpiperidin-1-yl)methanone]
Ki [4]: > 5000 nM

O=C(O)/C=C/C(=O)O.O=C(c1cccc([N+](=O)[O-])c1)N1C[C@@H]2CNC[C@@H](C2)C1 [Compound 23, (1R,5S)-3,7-diazabicyclo[3.3.1]nonan-3-yl(3-nitrophenyl)methanone]
affinity for the α4β2* subtype in words [5]: inactive

Cl.O=S(=O)(c1ccc(Br)cc1)N1C[C@@H]2CNC[C@@H](C2)C1 [Compound 39, (1R,5S)-3-(4-bromophenylsulfonyl)-3,7-diazabicyclo[3.3.1]nonane]
affinity for the α4β2* subtype in words [5]: nonactive

O=C(O)/C=C/C(=O)O.O=C(c1cccc(Cl)c1)N1C[C@@H]2CNC[C@@H](C2)C1 [Compound 22, (1R,5S)-3,7-diazabicyclo[3.3.1]nonan-3-yl(3-chlorophenyl)methanone]
affinity for the α4β2* subtype in words [5]: inactive

CCN(CC)C(=O)N1C[C@@H]2CNC[C@@H](C2)C1.O=C(O)/C=C/C(=O)O [Compound 42, (1R,5S)-N,N-diethyl-3,7-diazabicyclo[3.3.1]nonane-3-carboxamide]
affinity for the α4β2* subtype in words [5]: lost its affinity

O=[N+]([O-])c1ccc(S(=O)(=O)N2C[C@@H]3CNC[C@@H](C3)C2)cc1 [Compound 40, (1R,5S)-3-(4-nitrophenylsulfonyl)-3,7-diazabicyclo[3.3.1]nonane]
Ki [4]: > 10000 nM

O=C(N1CCCC1)N1C[C@@H]2CNC[C@@H](C2)C1.O=C(O)/C=C/C(=O)O [Compound 67, (1R,5S)-3,7-diazabicyclo[3.3.1]nonan-3-yl(pyrrodin-1-yl)methanone]
affinity for the α4β2* subtype in words [5]: not active | Ki [4]: > 10000 nM

O=c1c(-c2cccnc2)ccc2n1C[C@@H]1CNC[C@H]2C1 [4 (3PC), 3-(pyridine-3-yl)-cytisine]
Ki ([6]; ref [41],[44],[45]): > 5000 nM

CCC(=O)N1C[C@@H]2CNC[C@@H](C2)C1.O=C(O)/C=C/C(=O)O [Compound 15, (1R,5S)-1-(3,7-diazabicyclo[3.3.1]nonan-3-yl)propan-1-one]
functional profile at α3β4* [2]: Possible agonistic effects

O=C(C1CCCC1)N1C[C@@H]2CNC[C@@H](C2)C1.O=C(O)/C=C/C(=O)O [Compound 43, (1R,5S)-3,7-diazabicyclo[3.3.1]nonan-3-yl(cyclopentyl)methanone]
functional profile at α3β4* [2]: Possible agonistic effects | functional profile at α7 [1]: agonism

CN(C)C(=O)N1C[C@@H]2CNC[C@@H](C2)C1.O=C(O)/C=C/C(=O)O [Compound 41, (1R,5S)-N,N-dimethyl-3,7-diazabicyclo[3.3.1]nonane-3-carboxamide]
fold lower affinity for the α4β2* nAChR ([5]; compared to carboxamide analog 17): 10 fold

CS(=O)(=O)N1C[C@@H]2CNC[C@@H](C2)C1 [Compound 34, (1R,5S)-3-(methylsulfonyl)-3,7-diazabicyclo[3.3.1]nonane]
Ki [4]: > 10000 nM

CN1C[C@@H]2C[C@H](C1)C1CCCC(=O)N1C2 (some centres unmarked) [Compound 7]
Ki ([7]; ref [44]): 34 nM | Ki ([8]; ref [44]): 2450 nM | Ki ([9]; ref [44]): 10000 nM | Ki ([6]; ref [44]): > 50000 nM

O=c1cccc2n1C[C@@H]1CNC[C@H]2C1 [3 (Cyt), cytisine]
Ki ([7]; ref [41],[44],[45]): 0.122 nM

O=C1CCCC2[C@H]3CNC[C@H](C3)CN12 (some centres unmarked) [Compound 6, tetrahydrocytisine]
Ki ([7]; ref [44]): 17 nM | Ki ([8]; ref [44]): 385 ± 6 nM | Ki ([9]; ref [44]): 2000 nM

CC(=O)N1C[C@@H]2C[C@@H](CN(C)C2)C1 [Compound 70, 1-((1R,5S)-7-methyl-3,7-diazabicyclo[3.3.1]nonan-3-yl)ethanone]
fold lower affinity for the α4β2* subtype ([5]; compared to acetylbispidine 8): 35 fold

c1cnc2cc3c(cc2n1)[C@@H]1CNC[C@H]3C1 [5 (Var), varenicline]
Ki ([7]; ref [42]): 0.06 nM | Ki ([8]; ref [42]): 240 nM | Ki ([9]; ref [42]): 322 nM | Ki ([6]; ref [42]): 3540 nM

C1NCC2CNCC1C2 [bispidine, 3,7-diazabicyclo[3.3.1]nonane]
functional profile at α7 [1]: weak activation

CCCC(=O)N1C[C@@H]2CNC[C@@H](C2)C1.O=C(O)/C=C/C(=O)O [Compound 16, (1R,5S)-1-(3,7-diazabicyclo[3.3.1]nonan-3-yl)butan-1-one]
fold higher affinity for the α4β2* receptor ([5]; α4β2* versus α3β4*): about 74 fold | functional profile at α3β4* [2]: Possible agonistic effects | functional profile at α7 [1]: agonism

Source: paper PMC4519239 (Bioorganic & medicinal chemistry, 2013)
